“Also recorded” adds a separate entry of the source.
Tests used:
CD95/PLCγ1 interaction = biological target: T1, CD95/PLCγ1 interaction (Homo sapiens, UniProt P19174); experiment: Renilla luciferase protein-fragment complementation assay (PCA), CD95-CID/PLCγ1-SH3; format: cell-based; conditions: result in words
T1 construct: The PLCγ1-SH3 domain (aa 790-851) (C); expressed in transfected cells; host or cells: HEK293T
T1 sequence (P19174 790-851): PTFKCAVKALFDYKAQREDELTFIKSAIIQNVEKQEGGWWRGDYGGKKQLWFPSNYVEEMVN
Protocol: FIG. 1. […] A. Schematic representation of the protein-fragment complementation assay used with CD95-CID or -DD fused to F2 and PLCγ1-SH3 or FADD-DD fused to F1 to identify inhibitors from the Prestwick library. The Renilla luciferase enzyme was divided into amino-terminal and carboxy-terminal fragments (yellow domains) and fused to the indicated domains. B. Compounds from the Prestwick library were tested against CD95/PLCγ1 or CD95/FADD PCA. […] Inhibition of CD95/FADD interaction is also assessed.
Light emission indicates refolding of the luciferase and reconstitution of enzyme activity through protein/protein interactions. […] Data represent means±SD of three independent experiments. […] Then, the indicated peptides fused with or without the cell-penetrating domain TAT were incubated at the indicated concentrations for 4 hrs and luminescence was assessed. Data represent means±SD of three independent experiments. […].
HEK293T cells were electroporated with 5 μg of DNA using BTM-830 electroporation generator (BTX Instrument Division, Harvard Apparatus) with 10 μg of DNA. Transfected cells were cultured for 24 hrs prior to protein complementation assay analyses as previously described (17). Briefly, transfected cells (10^6) were washed, resuspended in 100 μl PBS and deposited in OptiPlate-96 (PerkinElmer, Waltham, Mass., USA). Coelenterazine-h (5 μM, Sigma) was injected to each well and renilla luciferase activity was monitored for the first 10 seconds using Infinite200Pro (Tecan, Männedorf, Switzerland).
A peptide consisting of the cell-penetrating domain of TAT fused to CID (TAT-CID) binds the SH3 domain of PLCγ1 and thereby, prevents PLCγ1/CD95 interaction and the subsequent induction of the Ca^2+ response (16). […] Briefly, the Renilla luciferase enzyme was divided into two fragments (F1 and F2 fragments). […] Interaction of CD95 with PLCγ1 or FADD allows the reconstitution of RLuc and subsequent light emission (FIG. 1A). The chemical Prestwick library was screened against these PCAs (FIG. 1B). […] These molecules are designated CID inhibitors or CIDINH.

[1] = system: CD95-mediated Ca2+ signaling pathway in Th17 cells; experiment: CD95-mediated Ca2+ response in Th17 cells; format: cell-based, human; conditions: non-toxic concentrations (1 μM), 1 h pre-treatment, cl-CD95L 100 ng/mL, FuraPE3-AM
Protocol: A. Activated PBLs were loaded with FuraPE3-AM (1 μM) and pre-treated for 1 h with non-toxic concentrations of indicated compounds. T-cells were then stimulated with thapsigargin (1 μM; arrow). Ratio values (R) were normalized to pre-stimulated values (R0) to yield R/R0 values. Data represent means±the SD. B. Th17 cells were sorted from healthy donors and loaded with FuraPE3-AM (1 μM). Th17 cells were pre-treated for 1 h with non-toxic concentrations of ritonavir or diflunisal (1 μM). T-cells were then stimulated with cl-CD95L (100 ng/mL; arrow). Ratio values (R) were normalized to pre-stimulated values (R0) to yield R/R0 values. Data represent means±the SD.
Human PBLs were sorted using flow cytometry cell sorting to isolate Th17 (A) according to their phenotype (CD3+CD4+CXCR5−CCR6+CXCR3−CD45RA−) and Tfh (B) (CD4+CXCR5+ICOS+PD−1+CD45RA−). Cells were pre-incubated with Indicated drugs (1 μM) for 1 h and then stimulated with 100 ng/mL of s-CD95L. [Ca2+]CYT was assessed in Fluo2 LR-AM (3 μM)-loaded cells. Data represent means±the SD of 3 independent experiments.
Peripheral blood mononuclear cells (PBMC) were isolated from buffy-coat by density gradient using lymphocyte separation medium (Eurobio, Les Ulis, France). PBMCs were then subjected to selection using a cocktail of antibody-coated magnetic beads: CCR6^+ CXCR3^−CD4^+ cells (Th17 cells) were sorted with Human Th17 Enrichment kit (STEMCELL Technologies, Grenoble, France). Cell sorting efficiency was evaluated by FACS.
T-cells were loaded with Fura-PE3-AM (1 μM) at room temperature for 30 min in Hank's Balanced Salt Solution (HBSS). After washing, the cells were incubated for 15 min in the absence of Fura-PE3-AM to complete de-esterification of the dye. Cells were placed in a temperature controlled chamber (37° C.) of an inverted epifluorescence microscope (Olympus IX70) equipped with an x40 UApo/340-1.15 W water-immersion objective (Olympus), and fluorescence micrograph images were captured at 510 nm and 12-bit resolution by a fast-scan camera (CoolSNAP fx Monochrome, Photometrics). To minimize UV light exposure, a 4×4 binning function was used. Fura-PE3 was alternately excited at 340 and 380 nm, and the ratios of the resulting images (emission filter at 520 nm) were produced at constant intervals (10 seconds). The Fura-PE3 ratio (Fratio 340/380) images were analyzed offline with Universal Imaging software, including Metafluor and Metamorph. Fratio reflects the intracellular Ca^2+ concentration changes. Each experiment was repeated at least 3 times, and the average of more than 20 single-cell traces per experiment was analyzed.

[2] = system: CD95-mediated Ca2+ signaling pathway in Tfh cells; experiment: CD95-mediated Ca2+ response in Tfh cells; format: cell-based, human; conditions: Example 2; signal described for Th17 and circulating Tfh cells
[3] = system: Tfh-dependent B cell activation; experiment: Tfh-dependent B-cell maturation co-culture (memory B cells with SEB-stimulated Tfh cells, s-CD95L); format: cell-based; conditions: preincubation of Tfh cells

O=C(O)c1cc(-c2ccc(F)cc2F)ccc1O [diflunisal, 5-(2,4-difluorophenyl)-2-hydroxybenzoic acid]
effect on interaction of CD95 with PLCγ1 (CD95/PLCγ1 interaction): efficiently prevented
effect on CD95-mediated Ca2+ signaling in Th17 cells [1]: abrogated

CC(C)c1nc(CN(C)C(=O)N[C@H](C(=O)N[C@@H](Cc2ccccc2)C[C@H](O)[C@H](Cc2ccccc2)NC(=O)OCc2cncs2)C(C)C)cs1 [ritonavir, 1,3-thiazol-5-ylmethyl N-[(2S,3S,5S)-3-hydroxy-5-[[(2S)-3-methyl-2-[[methyl-[(2-propan-2-yl-1,3-thiazol-4-yl)methyl]carbamoyl]amino]butanoyl]amino]-1,6-diphenylhexan-2-yl]carbamate]
effect on interaction of CD95 with PLCγ1 (CD95/PLCγ1 interaction): efficiently prevented; also recorded: prevents the PLCγ1 recruitment
effect on CD95-mediated Ca2+ signaling in Th17 cells [1]: abrogated
effect on sCD95L-induced Ca2+ response [2]: abrogated
effect on Tfh-dependent B cell activation [3]: blocks
